This note sets out measurements from patent US12092575B2, “Measuring method of cell migration using the rate of cell invasion” (MBD Co., Ltd., priority 2021, dated 2024).

SMILES strings stand for the structures.

Experiment [1] deals with #1 HNSCC PDC. The experiment is described as follows: Pillar-based spheroid invasion assay of #1 HNSCC PDC. In kind it is cell-based, human. The note with it: #1 HNSCC PDC spheroids, 80 μM of drugs, three days.
In experiment [2] the test system is A549 cell line. The experiment is described as follows: Pillar-based spheroid invasion assay of A549 cell line.
Protocol: Before using the pillar array, the pillar array and cell-encapsulation apparatus were immersed in 70% ethanol for 30 min for sterilization followed by complete drying at room temperature.
Experiment [3] concerns A549 cells. The experiment is described as follows: Transwell invasion assay (Matrigel-coated membrane). Format: cell-based. The note with it: 1 μM docetaxel, 24 h, Matrigel-coated membrane (FIG. 6). On the procedure: In the present invention, transwell for conventional invasion assay was used. The membrane of the transwell was coated with 100 μl Matrigel (Corning, NY, USA) basement membrane matrix diluted 9-fold. A549 cells (2×10^4 cells/well) were seeded in the insert of the transwell with RPMI media without FBS. 500 μl RPMI media with FBS was filled in the wells to serve as a chemoattractant. After 24 h of cell incubation, migrated cells on the insert were fixed with 95% ethyl alcohol and then stained with 0.5% crystal violet.
Based on the fluorescence intensity, spheroid was identified, and invasive cells were calculated by subtracting the spheroid area from the total cell area. A549 cells formed a spheroid two days after cell aggregation and incubation. Cells surrounding spheroid migrated for an additional three days of culture. To check the invasiveness of A549 cells, the present inventors conducted invasion assay using Transwell (24-well transwell, Cat. No. 3422, Corning, USA) in no drug and 1 μM Docetaxel.

Turning to `CN[C@@H]1C[C@H]2O[C@@](C)([C@@H]1OC)n1c3ccccc3c3c4c(c5c6ccccc6n2c5c31)C(=O)NC4` [staurosporine, Staurosporine], in experiment [1], the “cell migration/invasion (spheroid morphology)” value is listed as “effectively inhibited cell migration/invasion”.

For the molecule `CC(=O)O[C@@]12CO[C@@H]1C[C@H](O)[C@@]1(C)C(=O)[C@H](O)C3=C(C)[C@@H](OC(=O)[C@H](O)[C@@H](NC(=O)OC(C)(C)C)c4ccccc4)C[C@@](O)([C@@H](OC(=O)c4ccccc4)[C@H]21)C3(C)C` [docetaxel, Docetaxel], the cell invasion result in experiment [2] (A549 spheroids on pillar) is listed as “inhibited cell invasion”. In addition, the “size of a single big spheroid (spheroid area)” value in experiment [2] (A549 spheroids on pillar (FIG. 8)) is reported as “reduced the size of a single big spheroid”. The “total cell area, which means cell viability” value in experiment [2] (A549 spheroids on pillar, as a function of docetaxel concentration (FIG. 7)) is on record as “decreased depending on docetaxel concentration”. Besides, in experiment [2] (A549 spheroids on pillar, docetaxel treated, control 52% (FIG. 9)), the invasion ratio entry was “lower than 35%”. In addition, the “invasion of A549 in the Transwell” value in experiment [3] is “inhibited the invasion”. In experiment [1], the “cell migration/invasion (spheroid morphology)” value was “effectively inhibited cell migration/invasion”.

Turning to `N.N.[Cl][Pt][Cl]` [cisplatin, Cisplatin], the “cell migration/invasion (spheroid morphology)” value in experiment [1] is “effectively inhibited cell migration/invasion”.
